Four compounds from patent publication US6075033A, “Anthranilic acid diamides derivatives, their preparation and pharmaceutical use as anti-gastrin agents” (Rotta Research Laboratorium S.p.A, priority 1996, dated 2000) can be followed below.

One may read the IC50 as the concentration that gives 50% inhibition.

Assay [1] has as its target T1, central CCK-B receptor (Cavia porcellus, UniProt H0VZC5).
T1 construct: Cerebral cortexes of male albino guinea pigs were therefore used; from tissue; host or cells: cerebral cortex membranes of male albino guinea pigs
T1 sequence (H0VZC5 1-426): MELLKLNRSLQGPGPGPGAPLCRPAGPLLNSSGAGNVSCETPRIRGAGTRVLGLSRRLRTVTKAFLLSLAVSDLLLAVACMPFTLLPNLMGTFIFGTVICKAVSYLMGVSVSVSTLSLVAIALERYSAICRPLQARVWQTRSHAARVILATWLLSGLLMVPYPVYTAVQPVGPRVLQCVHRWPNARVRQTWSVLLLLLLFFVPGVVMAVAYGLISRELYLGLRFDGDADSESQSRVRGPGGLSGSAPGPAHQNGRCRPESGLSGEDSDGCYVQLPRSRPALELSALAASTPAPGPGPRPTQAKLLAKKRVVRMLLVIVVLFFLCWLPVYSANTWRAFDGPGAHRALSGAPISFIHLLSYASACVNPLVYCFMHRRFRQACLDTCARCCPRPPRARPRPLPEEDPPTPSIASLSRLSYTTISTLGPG
The assay is described as follows: Inhibition of the binding of [3H]-[pBC264]CCK-7 to guinea-pig cortex membranes. As to conditions: for IC50: guinea-pig cortex membranes, 0.2 nM radioligand, read-out: IC50, displacement of [3H][pBC264]CCK-7 from the receptor; for times less active than the corresponding (R) derivative: on average, CCK-B binding. An excerpt: (§1) [3-H][pBC264]CCK-7 was used to evaluate the ability of the compounds of the invention to interact with the central CCK-B receptor. This ligand has been show: to be selective for the CCK-B receptors since it has an affinity for the cortex (CCK-B) receptors 3 logarithmic orders of magnitude greater than for those of the pancreas (CCK-A) in the guinea pig (C. Durieux et al. Eur. J. Pharmacol. 168 (1989 page 269].
(§2) Cerebral cortexes of male albino guinea pigs were therefore used with the method given above, to obtain a membrane content corresponding to about 300 mcg of proteins/ml incubated with a final concentration of 0.2 nM of radioligand.
(§3) The results obtained for some of the compounds of the invention are shown in Table 2 in which the IC50, that is, the concentration (in micromoles/liter) of the antagonist which can displace 50% of the [3-H](pBC264]CCK-7 from the receptor, is given.
(Loss of bound radioactivity is the signal in a displacement assay; it reports binding, not function.)

Assay [2] deals with central CCK-B receptor. Described as above. As to conditions: CCK-B binding (Table 2) compared with CCK-A gall bladder activity.
Text: as §1, §2, §3

The target in assay [3] is T2, type B (CCK-B) gastrin or cholecystokinin receptors (Oryctolagus cuniculus, UniProt P46627).
T2 construct: rabbit gastric mucous-membrane cells were prepared by conventional techniques; endogenous in cells; host or cells: dispersed rabbit gastric mucous-membrane cells (collagenase and pronase)
T2 sequence (P46627 1-452): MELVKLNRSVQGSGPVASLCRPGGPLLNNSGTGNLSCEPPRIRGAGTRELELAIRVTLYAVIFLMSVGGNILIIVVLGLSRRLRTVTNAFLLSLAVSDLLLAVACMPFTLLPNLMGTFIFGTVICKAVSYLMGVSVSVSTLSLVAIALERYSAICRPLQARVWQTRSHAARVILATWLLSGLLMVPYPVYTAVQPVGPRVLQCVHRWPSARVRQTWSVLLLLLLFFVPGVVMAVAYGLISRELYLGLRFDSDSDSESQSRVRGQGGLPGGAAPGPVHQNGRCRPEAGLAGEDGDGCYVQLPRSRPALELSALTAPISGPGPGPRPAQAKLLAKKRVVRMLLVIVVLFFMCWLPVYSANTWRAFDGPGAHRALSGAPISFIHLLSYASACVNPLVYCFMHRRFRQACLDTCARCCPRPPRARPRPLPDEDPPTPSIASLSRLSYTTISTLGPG
The experiment in a line: Inhibition of the increase in cytosol calcium induced by gastrin in rabbit gastric mucous-membrane cells. It is filed as cell-based. As to conditions: 5×10-8 gastrin. From the text:
The parietal cells of the gastric mucous membrane are responsible for the secretion of HCl. They have specific membrane receptors which can be activated by gastrin and which have been defined as type B (CCK-B) gastrin or cholecystokinin receptors.
Since it has been observed that the activation of CCK-B receptors by gastrin leads to an increase in the level of cytosol calcium ions, a technique of measurement of the increase in intracellular calcium induced by gastrin in the presence and in the absence of the compounds of the invention was used as an indication of the anti-gastrin activity of the compounds.
Suspensions (0.8×10^6 /ml) of rabbit gastric mucous-membrane cells were prepared by conventional techniques with the use of collagenase and pronase as digestive enzymes; the basal [Ca^2+ ]i values, that is, those reached […] stimulation of the cellular system, were estimated in accordance with Grynkiewicz et al [J. Biol. Chem. 260 (1985), 3440]. In the control samples, the cells were stimulated with […], whereas in the samples in which the effect of the compounds of the invention was evaluated, the cells were incubated with these compounds before stimulation with gastrin. The results are expressed as percentage increments of [Ca^2+ ]i with reference to the control value. The anti-gastrin activity of the compounds was expressed as the IC50 value, that is, the concentration (in micromoles/liter) at which the response to the stimulus induced by gastrin was reduced by 50%.

The next assay deals with rat. The assay is described as follows: Anxiolytic activity, elevated plus-maze in the rat. It is filed as in vivo. From the text: An important role has in fact recently been postulated for the central CCK-B receptor in anxiety. […] In this experimental model, a compound having anxiolytic activity produces a % increase in the time spent in the open limbs and a % increase in the number of entries to the open limbs.
The results obtained are shown in Table 4 below, in which the activities obtained with various doses of compound 1 administered by an intraperitoneal route (IP) in comparison with a group of animals treated with physiological solution by the same route.

On to `Cc1cc(C)c(NC(=O)C[C@H](CC(=O)O)c2cccc3ccccc23)c(C(=O)N2CCC3(CCCC3)CC2)c1` [Compound 1], for which the IC50 on central CCK-B receptor [1] was 5.1 nM. The “affinity for the gastrin receptor (CCK-B) relative to the cholecystokinin receptor (CCK-A)” value in the assay with central CCK-B receptor [2] is given as “at least 1000 times”. Besides, the “IC50, inhibition of gastrin-induced increase in cytosol calcium” value in assay [3] worked out at 4.3 nM. In the assay on rat (0.03 mg/kg I.P.), the “% effect Vs controls (entries open limbs/total entries)” value is 32.6%, the “% effect Vs controls (time open limbs/total time)” value came out at 26.4%, the “Entries open limbs/total entries (%)” value is on record as 42.2% and the “Time open limbs/total time (%)” value was 27.5%. Moreover, in the assay on rat (0.3 mg/kg I.P.), the “% effect Vs controls (entries open limbs/total entries)” value is given as 31.5%, the “% effect Vs controls (time open limbs/total time)” value is listed as 50.9%, the “% of time spent in the open limbs vs control group (in words)” value is recorded as “this increase is significant” and the “Entries open limbs/total entries (%)” value worked out at 41.8%. Besides, in the assay with rat (0.3 mg/kg I.P., (*) Duncan test p < 0.05 vs control group), the “Time open limbs/total time (%)” value is recorded as 32.8%. Moreover, in the assay on rat (3.0 mg/kg I.P.), the “% effect Vs controls (entries open limbs/total entries)” value was 26.3%, the “% effect Vs controls (time open limbs/total time)” value is 38.5%, the “Entries open limbs/total entries (%)” value is reported as 40.2% and the “Time open limbs/total time (%)” value is reported as 30.1%. In the assay on rat (dose range 0.03-3 mg/kg I.P.), the “% of entries to the open limbs over total entries vs controls (in words)” value was “increases the % of entries to the open limbs”. Also, the “anxiolytic activity (in words)” value with rat (plus maze, I.P.) is recorded as “shows anxiolytic activity”.
`Cc1cc(Cl)c(NC(=O)C[C@H](CC(=O)O)c2cccc3ccccc23)c(C(=O)N2CCC3(CCCC3)CC2)c1` [Compound 2]: the IC50 on central CCK-B receptor [1] is 2.5 nM. The “IC50, inhibition of gastrin-induced increase in cytosol calcium” value in assay [3] is 3.5 nM.
As to `Cc1cc(C)c(NC(=O)C[C@@H](CC(=O)O)c2cccc3ccccc23)c(C(=O)N2CCC3(CCCC3)CC2)c1` [Compound 4], on central CCK-B receptor [1], the IC50 is 54.7 nM and the “times less active than the corresponding (R) derivative” value is approximately 10 times. In addition, the “IC50, inhibition of gastrin-induced increase in cytosol calcium” value in assay [3] turned out to be 68.8 nM.
As for `Cc1cc(Cl)c(NC(=O)C[C@@H](CC(=O)O)c2cccc3ccccc23)c(C(=O)N2CCC3(CCCC3)CC2)c1` [Compound 5], at central CCK-B receptor [1], the IC50 was found to be 22.9 nM and the “times less active than the corresponding (R) derivative” value is listed as approximately 10 times. In addition, in assay [3], the “IC50, inhibition of gastrin-induced increase in cytosol calcium” value was 82 nM.
